Where two headings read alike, the source gives them in different places.
Assays:
blood pressure [1] = conditions: intravenous dosing, dogs; cited from earlier work
blood pressure [2] = conditions: intravenous dosing, rats; cited from earlier work
blood pressure [3] = conditions: intravenous dosing, rabbits; cited from earlier work
[4] = tested on: hypotension in distributive shock; assay: clinical study of angiotensin II in treating hypotension in distributive shock; format: in vivo, human; conditions: 95% CI 4.76 to 13.3; P<0.001
Description: Vials containing 2 milliliters of 2.5 mg/mL (mg) angiotensin II in 0.9% saline and 25 mg/mL mannitol were evaluated in a clinical study of angiotensin II in treating hypotension in distributive shock (Khanna et al., N Engl J Med 2017; 377:419-430). Patients were currently on other vasopressors but still hypotensive (mean arterial pressure (MAP)[…]65 mmHg). Administration of angiotensin II was begun at a rate of 20 ng/kg/min, and titrated up or down to achieve and maintain an increased MAP of 10 mmHg above baseline or at least 75 mmHg. For the first 3 hours of treatment, the other vasopressors were held constant and the maximum dose allowed of angiotensin II was 200 ng/kg/min. At 3 hours and 15 minutes, all vasopressors could be titrated to maintain a MAP between 65-75 mmHg and an angiotensin II rate of 1.25-40 ng/kg/min. Angiotensin II could be administered for up to 7 days in this study. In this study, about 1 vial of drug (5 mg) was sufficient to treat each patient for a 24-hour period, and patients were on the treatment for an average of 2 days. Most patients required at least 1 mg of drug per day.
A total of 344 patients were assigned to one of the two regimens; 321 received a study intervention (163 received angiotensin II, and 158 received placebo) and were included in the analysis.

[5] = tested on: sepsis-induced hypotension; conditions: porcine fecal peritonitis septic shock; hemodynamic effects similar to norepinephrine; cited from earlier work

In the case of CC[C@H](C)[C@H](NC(=O)[C@H](Cc1ccc(O)cc1)NC(=O)[C@@H](NC(=O)[C@H](CCCNC(=N)N)NC(=O)[C@@H](N)CC(=O)O)C(C)C)C(=O)N[C@@H](Cc1c[nH]cn1)C(=O)N1CCC[C@H]1C(=O)N[C@@H](Cc1ccccc1)C(=O)O [angiotensin II, H-Asp-Arg-Val-Try-Ile-His-Pro-Phe-OH], the “effect on blood pressure” value (blood pressure [1]) is listed as “increase in blood pressure”, the “effect on blood pressure” value (blood pressure [2]) is listed as “increase in blood pressure” and the “effect on blood pressure” value (blood pressure [3]) is listed as “increase in blood pressure”. The “odds ratio for primary end point, angiotensin II vs placebo” value [4] was 7.95 and the “effect on sepsis-induced hypotension” value [5] was “reversed sepsis-induced hypotension”.

Source: patent US20250090622A1, “ANGIOTENSIN COMPOSITIONS AND METHODS RELATED THERETO” (LA JOLLA PHARMA, LLC, priority 2017, published 2025)
